Several values for one entry are separate records, joined by “and”; a condition that tells them apart may be missing. Identical values can stand only once.

The nature of series [1]: In vitro ABTS radical scavenging assay. The following applies: mean ± SEM, n = 3; 30 min incubation, absorbance at 734 nm. The method, then: ABTS (2,2′-azinobis (3-ethylbenzothiazoline-6-sulfonic acid) diammonium salt) assay was used for the antioxidant estimation. Though many methods are available, this appears to be the most popular because of its operational simplicity, short experimental time, and the employment of the inexpensive spectrophotometer.
Antioxidant activity was tested in the dark room by ABTS assay. UV-1800 (Shimadzu Corporation, Kyoto, Japan) was used to measure UV absorption. Hellma’s 104.600-QC Quartz cell was used as a UV cell. IC50 values were obtained using OriginPro 8.0 software (OriginLab Corporation, Northampton, MA, USA).
Antioxidant assay using ABTS
The radical cation was prepared by mixing an equal amount of 7mM ABTS (2,2’-azino-bis(3-ethylbenzothiazoline-6-sulphonic acid)) stock solution with 2.45 mM potassium persulfate stock solution. This mixture was stored at 0 °C for 12 hours under darkness. The above ABTS […]
Then these solutions were diluted with methanol to 500 µM, 250 µM, 125 µM, 62.5 µM, […]
tubes, 0.9 mL of the ABTS solution and 0.1 mL of the compound solution were mixed under darkness. After 30 min of incubation, the UV absorption at 734 nm was measured. Control was used the mixture of 0.9 mL ABTS and 0.1 mL methanol. […]
(§1) Statistical analysis. Statistical significance was analyzed using the GraphPad Prism 5 software (GraphPad Software, San Diego, CA, USA). The comparison of two groups was performed by the unpaired t test. Values of *P less than 0.05, **P less than 0.01 and ***P less than 0.001 were considered statistically significant.

The test system of series [2] is RAW 264.7 cells. The series can be described thus: Cell viability (MTT) assay. In kind it is cell-based. The following applies: for Cell Viability LD50: 24 h.
From the text: In the pathogenesis of inflammatory-related disorders, NO is recognized as one of the important mediators. […] Herein, to understand the anti-inflammatory properties of the resveratrol analogues, we studied their inhibitory effects against NO production in LPS-treated RAW 264.7 cells. Although it is not possible to measure NO quantitatively in a biological environment due to its rapid oxidation to NO2 (nitrite), short physiological half-life and presence of other free radicals, NO secretion activity in cells is indirectly determined by Griess assay counting its stable product NO2 levels. The inhibitory effects of 1–7 on NO production were collected in Table 2. […] Cell viability was not affected up to 50 μM except for 2. We also applied in vitro efficacy index (iEI) paradigm, the ratio of toxicity (LD50)/anti-inflammatory potency (ED50), to confirm that the anti-inflammatory activity is in the viable cells only. […] On the whole, compounds 5 and 7 have much-improved iEI values compared to any other compounds. […]
NO assay and cell viability test
Murine macrophage, Raw 264.7 cells were grown in Dulbecco’s modified Eagle’s medium (Gibco, Carlsbad , CA, USA), supplemented with 2 mM glutamine, antibiotics (100 U/mL of penicillin A and […] of streptomycin) and 10% FBS (Gibco). Cells were cultured in 96-well plates (5×10^4 cells), treated with serial dilutions of compound (3.125-100 µM) and stimulated with LPS (1 µg/mL) for 24 h at 37°C. After incubation, the supernatant was collected and the amount of nitrite was quantified using the Griess Reagent System ( Promega, Fitchburg, WI, USA ). For the correction of NO production, cell viability was measured using the CellTiter 96® Aqueous one solution cell proliferation assay kit (Promega). Cells were incubated with varying amounts of compound for 24 h, then MTS (tetrazolium salt) reagent was added to the plates. After 1h, the absorbance at 490 nm was read using a microplate reader (Thermo Scientific, Waltham, MA, USA).
as §1

Series [3] has as its system IL-1β gene expression in LPS-stimulated RAW 264.7 cells. The series can be described thus: Pro-inflammatory cytokine gene expression by endpoint RT-PCR, IL-1β. In kind it is cell-based, Murine. The settings on record: 12.5~50 μM compound, 1 μg/mL LPS, 24 h. Here is the method: (§2) We have further investigated whether resveratrol and its analogues can reduce the inflammatory activity of macrophages. For this purpose, we examined the downregulation of pro-inflammatory cytokine gene expression of LPS-stimulated RAW 264.7 cells by potent inhibitors of NO production (1, 2, 5, and 7) (Figure 2). […] Treatment with 50 μM of analogue 2 was highly toxic to the cells.
(§3) Figure 2 Inhibitory effects of 1–7 on pro-inflammatory cytokine production of activated macrophage cells. RAW 264.7 cells were treated with 1 μg/mL LPS for 24 h in the presence of the indicated amounts (12.5~50 μM) of compounds. Gene expression levels were analyzed by endpoint reverse transcriptase-polymerase chain reaction and 1.5% agarose gel electrophoresis. GAPDH was used as a control.
(§4) Reverse transcriptase-polymerase chain reaction (RT-PCR)
(§5) Total RNA was isolated from Raw 264.7 cells using TRIzol reagent (Invitrogen, Waltham,
(§6) MA, USA). Relative levels of pro-inflammatory cytokine gene expression were tested by
(§7) 1.5% agarose gel electrophoresis after endpoint RT-PCR using GoScript™ Reverse
(§8) Transcriptase (Promega). The sequences of the sense and anti-sense primers used for
(§9) amplification are as follows. IL-1β, 5’-[…]-3’, 5’-
(§10) TNF-α, 5’-[…]-3’, 5’-GGCACCA
(§11) -3’. As a control, glyceraldehyde-3-phosphate dehydrogenase
(§12) (GAPDH) gene was also amplified using 5’-[…]-3’, 5’-
(§13) (1 picture or pasted object on this page, not shown here)

In series [4] the test system is IL-6 gene expression in LPS-stimulated RAW 264.7 cells. The series can be described thus: Pro-inflammatory cytokine gene expression by endpoint RT-PCR, IL-6. It is filed as cell-based, Murine. The settings on record: 12.5~50 μM compound, 1 μg/mL LPS, 24 h. The method, then:
as §2, §3, §4, §5, §6, §7, §8, §9, §10, §11, §12, §13

The subject of series [5] is TNF-α gene expression in LPS-stimulated RAW 264.7 cells. Nature of the series: Pro-inflammatory cytokine gene expression by endpoint RT-PCR, TNF-α. In kind it is cell-based, Murine. The following applies: 12.5~50 μM compound, 1 μg/mL LPS, 24 h. The method, then:
as §2, §3, §4, §5, §6, §7, §8, §9, §10, §11, §12, §13

For series [6], the system named is NO production in LPS-treated RAW 264.7 cells. The series can be described thus: Inhibition of NO production (Griess assay, nitrite) in LPS-treated RAW 264.7 cells. It is filed as cell-based, Murine. The settings on record: LPS 1 μg/mL, 24 h, NO2 released into culture media, mean ± SEM, n = 3. The source says:
In the pathogenesis of inflammatory-related disorders, NO is recognized as one of the important mediators. […] Herein, to understand the anti-inflammatory properties of the resveratrol analogues, we studied their inhibitory effects against NO production in LPS-treated RAW 264.7 cells. Although it is not possible to measure NO quantitatively in a biological environment due to its rapid oxidation to NO2 (nitrite), short physiological half-life and presence of other free radicals, NO secretion activity in cells is indirectly determined by Griess assay counting its stable product NO2 levels. The inhibitory effects of 1–7 on NO production were collected in Table 2. […] Cell viability was not affected up to 50 μM except for 2. […]
Anti-inflammatory activity was measured as the effect of compounds on inhibiting NO production versus cell viability. […]
Murine macrophage, Raw 264.7 cells were grown in Dulbecco’s modified Eagle’s medium (Gibco, Carlsbad , CA, USA), supplemented with 2 mM glutamine, antibiotics (100 U/mL of penicillin A and […] of streptomycin) and 10% FBS (Gibco). […] After incubation, the supernatant was collected and the amount of nitrite was quantified using the Griess Reagent System ( Promega, Fitchburg, WI, USA ). For the correction of NO production, cell viability was measured using the CellTiter 96® Aqueous one solution cell proliferation assay kit (Promega). […]
In general terms: Nitrite, measured by Griess reagent, commonly stands in for NO production.

Where [7] appears, read: RAW 264.7 cells, mean ± SEM, n = 3.

`O=C1O[C@H]([C@@H](O)CO)C(O)=C1O` [Ascorbic acid, reference compound]: in series [1], 19.8 ± 0.934 µM corresponded to half-maximal inhibition (IC50).
`Oc1ccc(/C=C/c2cc(O)cc(O)c2)cc1` [Compound 1, 3,5,4′-trihydroxy-trans-stilbene, reference compound]: the “Cell Viability LD50” value in series [2] (mouse) amounted to 81.08 ± 9.258 µM. Moreover, in series [3], the “Level of IL-1β gene expression” value is “significantly reduced”. The “Level of IL-6 gene expression” value in series [4] is recorded as “significantly reduced”. For the same molecule, the “Level of TNF-α gene expression” value in series [5] is “did not change”.
For the molecule `Oc1cc(O)cc(/C=C/c2ccc3cc(O)ccc3c2)c1` [Compound 2], the IC50 (in general, the midpoint of a concentration-inhibition curve) in series [1] turned out to be 3.14 ± 0.445 µM. Further, in series [2] (50 μM, LPS-stimulated RAW 264.7 cells, seen in the RT-PCR experiment (RNA degraded, no PCR amplification)), the “Toxicity to the cells” value is given as “highly toxic”. In addition, the “Cell Viability LD50” value in series [2] (setting [7]) is 28.82 ± 0.767 µM. Besides, the “Level of IL-1β gene expression” value in series [3] is reported as “significantly reduced”. Also, in series [4], the “Level of IL-6 gene expression” value is “significantly reduced”. Besides, in series [5], the “Level of TNF-α gene expression” value was “did not change”.
On to `Oc1cc(O)cc(/C=C/c2cnc3cc(O)ccc3c2)c1` [Compound 3], for which, in series [1], the IC50 was 3.57 ± 0.496 µM. In series [2] (setting [7]), the “Cell Viability LD50” value was determined as 167.12 ± 13.652 µM.
For `Oc1cc(O)cc(/C=C/c2ccc3cc(O)ccc3n2)c1` [Compound 4], in that order: 3.61 ± 0.253 µM and 123.47 ± 6.388 µM.
Consider `Oc1cc(O)cc(/C=C/c2cc3ccc(O)cc3cn2)c1` [Compound 5], for which inhibition in series [1] was half-maximal at 2.81 ± 0.034 µM (IC50). Further, the “NO/MTT Assay ED50” value in series [6] is 13.08 µM and 13.08 ± 0.690 µM. Moreover, in series [2] (setting [7]), the “Cell Viability LD50” value came to 63.30 ± 1.139 µM. Also, the “Level of IL-1β gene expression” value in series [3] was “significantly reduced”. In addition, in series [4], the “Level of IL-6 gene expression” value is reported as “significantly reduced”. For the same molecule, the “Level of TNF-α gene expression” value in series [5] is listed as “did not change”.
For the molecule `Oc1cc(O)cc(/C=C/c2cnc3cc(O)ccc3n2)c1` [Compound 6], half-maximal inhibition in series [1] (IC50) was put at 3.1 ± 0.953 µM. Moreover, the “Cell Viability LD50” value in series [2] (setting [7]) came to 120.46 ± 4.237 µM.
The molecule `Oc1cc(O)cc(/C=C/c2ncc3cc(O)ccc3n2)c1` [Compound 7] had an IC50 in series [1] of 3.54 ± 0.714 µM. The “NO/MTT Assay ED50” value in series [6] is 21.67 µM and 21.67 ± 1.101 µM. In addition, the “Cell Viability LD50” value in series [2] (setting [7]) was 92.58 ± 8.745 µM. Further, in series [3], the “Level of IL-1β gene expression” value was “significantly reduced”. In addition, the “Level of IL-6 gene expression” value in series [4] is listed as “significantly reduced”. Also, the “Level of TNF-α gene expression” value in series [5] is recorded as “did not change”.

The values are drawn from PMC7865754, “Design and Synthesis of π-Extended Resveratrol Analogues and In Vitro Antioxidant and Anti-Inflammatory Activity Evaluation” (Molecules, 2021).
